Results: publication PMC7247319, “The mitochondria-targeted peptide SS-31 binds lipid bilayers and modulates surface electrostatics as a key component of its mechanism of action” (The Journal of Biological Chemistry, 2020)
Where a SMILES comes first, the peptide text is derived from it. [ ]: non-standard residue; d: D form. Dmt = Cc1cc(O)cc(C)c1C[C@H](N)C(=O)O

Test system: isolated mitochondria
Test: Respirometry (oxygen consumption) of mitochondria under calcium stress
Set-up: species or system S. cerevisiae
Conditions: mitochondria 1 mg ml^−1, SS-31 54.4 μM, CaCl2 1 mM, preincubated on ice 20 min; n = 10–12
Procedure: Figure 7. SS peptide effects on Ca^2+-membrane interactions and mitochondrial cation stress. A, profiles of surface potential decay (top) and ion distribution (bottom) based on GCS theory in the presence or absence of SS-31 (see supporting Results H for model description). B, effect of SS peptides on Ca^2+ accumulation at model membrane interfaces. Time course measurements of CG-5N emission were performed in solutions with LUVs (20 mol % TOCL in host POPC background, [lipid]^eff = 100 μM) prebound with SS peptide at the indicated concentration followed by titration of CaCl2 in increments of 1 nmol at 20-s intervals starting at t = 60 s. C and D, effect of SS peptides on mitochondrial Ca^2+ uptake. […] Spectral deconvolution yielded the indicated components (see Fig. S19, A and B), which were used to quantify the area ratios of L2/iso in F (values shown are means ± S.D. (error bars) (n = 3). G, respirometry analysis. Mitochondria (1 mg ml^−1) were treated in the absence or presence of SS-31 (54.4 μM) or CaCl2 (1 mM) as indicated and measured for state 2 respiration (n = 10–12 each).
Finally, we measured the effects of SS peptides on mitochondrial calcium stress that may occur independently of Ca^2+ uptake into the matrix. […] To corroborate these findings, we measured mitochondrial oxygen consumption rates under similar conditions of SS peptide treatment and calcium stress. […]

Cc1cc(O)cc(C)c1C[C@H](NC(=O)[C@H](N)CCCNC(=N)N)C(=O)N[C@@H](CCCCN)C(=O)N[C@@H](Cc1ccccc1)C(N)=O [SS-31, D-Arg-2′6′-dimethyl-Tyr-Lys-Phe-NH2] (H-[dR][Dmt]KF-NH2)
effect on calcium-induced increase in basal (state 2) respiration: prevented
